In patent US20250134998A1, “T CELLS WITH CELL-SURFACE EXPRESSION OF ADENOSINE DEAMINASE AND USES THEREOF” (The Board of Trustees of the Leland Stanford Junior …, priority 2021, published 2025):

What was measured:
Assay type in all cases: cell-based, human
[1] = test system: Nalm6-GD2; experiment: IL-2 and IFNγ ELISA, HA CAR T cells stimulated with Nalm6-GD2 with or without EHNA; conditions: 10 uM EHNA
Description: HA CAR T cells were stimulated with Nalm6-GD2 tumor line in the presence or absence of 10 uM of EHNA inhibitor at day 15 post-activation. IL-2 and IFNγ secretion was assessed using ELISA. One donor shown.
In some further experiments, CAR T cells overexpressing either ADA1-TM or ADA2-TM were activated with Nalm6-GD2 in the presence or absence of 10 uM of adenosine deaminase inhibitor—EHNA. It was observed that both CAR T cells overexpressing either HA-ADA1-TM or HA-ADA2-TM produced more IL-2 and IFNγ as compared to control group and this increase was abrogated in the presence of EHNA (see e.g., FIG. 12D).

[2] = test system: HA and CD19 CAR T cells; experiment: Cytokine secretion by idiotype-activated CAR T cells with NECA (ELISA); conditions: plate-bound idiotype, NECA treatment
Description: Co-culture Assays: CAR-T cells were cultured with 1 μM of CPI444 (CORVUS BIOPHARMA) for 2 to 24 hours before the duration of co-culture (unless stated otherwise) with tumor cells or plate-bound idiotype at the concentration 1 or 5 μg/ml. To stimulate a2aR, cells were treated with 0.01-0.1 mM of NECA (Torcis). For cytotoxicity assays, approximately 5×10^4 of tumor cells were co-cultured with CAR T cells at indicated ratio in 200 μL CM in 96-well flat bottom plates. Four images per well at 10× zoom were collected at each time point. Tumor cell growth was quantified by measuring total integrated GFP intensity per well using an IncuCyte ZOOM Live-Cell analysis system (Essen Bioscience) every 2-3 hr. GFP signal was normalized to the time 0 signal. Cell culture supernatants were collected at 24 hours, and interleukin-2 (IL-2) and interferon-g concentrations were determined by enzyme-linked immunosorbent assay (Biolegend). Triplicate wells were plated for each condition. […]
To test whether CAR T cells are susceptible to adenosine-mediated suppression, HA and CD19 CAR T cells were activated with plate-bounded idiotype in the presence or absence of the adenosine receptor agonist 5′-(N-ethylcarboxamido) adenosine (NECA), and analyzed the effector cytokine secretion capacity by ELISA (FIG. 6D; FIGS. 7A-7B). […]

[3] = test system: NF-kB pathway; experiment: NF-κB-GFP activation reporter in HA CAR-T cells
Description: FIG. 7C illustrates NFkB-GFP activation level 4 hrs after stimulation of HA CAR T cells in the presence or absence of NECA and A2aR competitive inhibitor. Data are mean s.e.m. from triplicate wells.
To test whether CAR T cells are susceptible to adenosine-mediated suppression, HA and CD19 CAR T cells were activated with plate-bounded idiotype in the presence or absence of the adenosine receptor agonist 5′-(N-ethylcarboxamido) adenosine (NECA), and analyzed the effector cytokine secretion capacity by ELISA (FIG. 6D; FIGS. 7A-7B). […] Adenosine-dependent a2aR stimulation led to elevate intracellular 3′,5′-cyclic adenosine monophosphate (cAMP) which in turn inhibited the NF-kB pathway and cell proliferation (FIG. 6A). To evaluate whether adenosine suppression of CAR T cells worked through the same mechanisms, an NF-κB activation reporter was constructed by placing the Green Fluorescence Protein (GFP) gene downstream of NF-κB response elements. HA CAR-T cells were co-transduced with this NF-kB-GFP reporter. Upon activation with plate-bound idiotype, NECA diminished activation of the NF-kB-GFP reporter (FIG. 7C). This inhibitory effect on activation was prevented by addition of the selective A2aR competitive antagonist (iA2aR), confirming A2a receptor (A2aR) involvement in the suppressive effect of NECA on HA CAR-T cells.

[4] = test system: CD19.BBz CAR T cells; experiment: Suppression assay: IL-2 secretion by CD19 CAR T cells with HA CAR T cells present; conditions: CD19 CAR T cells pre-incubated with A2aR inhibitor, in the presence of adenosine-producing HA cells
Description: Suppression Assay: For assessing IL-2 secretion inhibition 5×10^4 CD19 CAR T cells 5×10^4 Nalm6 tumor cells together with 5×10^4 of HA CAR or Mock T cells were cultured in 300 μL CM in 96-well flat bottom plates for 24 h. Triplicate wells were plated for each condition. Culture supernatants were collected and analyzed for IL-2 by ELISA (BioLegend).
IL-2 secreted by CD19.BBz CAR T cells co-cultured with Nalm6 leukemia cells was measured in the presence or absence of bulk or sorted CD8+HA CAR T cells for 24 hours.
To test this hypothesis that adenosine production was responsible for the suppressive function of exhausted CAR T cells over neighboring cells, whether HA CAR-T cells were able to produce adenosine in an autocrine manner was investigated (FIG. 7D). Next, CD19 CAR T cells that were pre-incubated with A2aR inhibitor were activated in the presence or absence of (CD8) HA CAR T cells.

CCCCCC[C@@H]([C@@H](C)O)n1cnc2c(N)ncnc21 (racemic) [EHNA]
increase in IFNγ by CAR T cells overexpressing HA-ADA1-TM or HA-ADA2-TM [1]: abrogated
increase in IL-2 by CAR T cells overexpressing HA-ADA1-TM or HA-ADA2-TM [1]: abrogated

CCNC(=O)[C@H]1O[C@@H](n2cnc3c(N)ncnc32)[C@H](O)[C@@H]1O [NECA, 5′-(N-ethylcarboxamido) adenosine]
IFNγ production [2]: reduced
IL-2 production [2]: reduced
activation of the NF-kB-GFP reporter ([3]; plate-bound idiotype): diminished

Cc1ccc(-c2nc(N)nc3c2nnn3Cc2cccc(CO[C@H]3CCOC3)n2)o1 [iA2aR]
IL-2 production by CD19 CAR T cells [4]: restored IL-2 production
inhibitory effect of NECA on NF-kB-GFP reporter activation ([3]; A2aR antagonist added): prevented
